# Data from US12497399B2, “Fluorinated integrin antagonists” (OcuTerra Therapeutics, Inc., priority 2013, dated 2025).
# How the values were obtained:
# [1] = biological target: T1, αv integrin (Homo sapiens, UniProt P06756); assay: Cell adhesion assay: HMVEC adhesion to vitronectin coated plates; format: cell-based; settings: human dermal microvascular endothelial cells, 1.5 h at 37° C., read-out: IC50 to block adhesion of HMVEC to vitronectin
# T1 construct: three primary cell cultures; host or cells: HMVEC primary human dermal microvascular endothelial cells, passages 9-14
# T1 sequence (P06756 31-1048): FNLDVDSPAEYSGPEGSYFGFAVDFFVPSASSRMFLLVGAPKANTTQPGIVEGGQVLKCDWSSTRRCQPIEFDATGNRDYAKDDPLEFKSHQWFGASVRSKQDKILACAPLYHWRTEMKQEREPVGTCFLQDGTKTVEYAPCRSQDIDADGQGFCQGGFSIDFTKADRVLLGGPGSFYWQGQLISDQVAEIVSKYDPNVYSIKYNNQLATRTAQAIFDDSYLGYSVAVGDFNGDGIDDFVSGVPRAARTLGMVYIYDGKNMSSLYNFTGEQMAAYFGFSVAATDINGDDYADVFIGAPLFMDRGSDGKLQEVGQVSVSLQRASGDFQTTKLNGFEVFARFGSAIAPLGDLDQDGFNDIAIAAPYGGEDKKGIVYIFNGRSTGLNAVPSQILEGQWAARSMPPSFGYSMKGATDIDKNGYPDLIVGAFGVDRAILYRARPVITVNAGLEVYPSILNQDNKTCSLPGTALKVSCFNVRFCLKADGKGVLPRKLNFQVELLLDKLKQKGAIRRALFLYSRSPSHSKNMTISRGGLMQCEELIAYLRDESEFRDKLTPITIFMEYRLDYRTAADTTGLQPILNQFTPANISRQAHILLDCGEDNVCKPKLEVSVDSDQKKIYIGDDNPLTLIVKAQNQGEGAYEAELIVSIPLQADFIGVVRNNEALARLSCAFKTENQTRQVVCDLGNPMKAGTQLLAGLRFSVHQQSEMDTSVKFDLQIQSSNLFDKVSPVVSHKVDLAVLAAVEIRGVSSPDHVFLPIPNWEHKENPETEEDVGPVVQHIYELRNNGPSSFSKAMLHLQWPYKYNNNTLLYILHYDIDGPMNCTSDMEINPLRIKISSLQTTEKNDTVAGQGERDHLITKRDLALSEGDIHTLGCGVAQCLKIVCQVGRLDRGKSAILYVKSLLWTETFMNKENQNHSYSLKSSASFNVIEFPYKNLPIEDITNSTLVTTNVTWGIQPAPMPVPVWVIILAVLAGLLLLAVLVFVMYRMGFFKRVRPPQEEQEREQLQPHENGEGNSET
# Description: (§1) The ability of compounds to block adhesion of three primary cell cultures: human dermal microvascular endothelial (HMVEC), rat lung microvascular endothelial (RLMVEC), and rabbit aortic endothelial (RAEC) cells, to vitronectin coated plates was determined using the following procedure.
# (§2) Adhesion plates preparation. 96-well plates were coated with vitronectin in PBS, pH 7.4 by incubating 50 μL of the solution (10 μg/ml) for 1.5 h at room temperature or overnight at 4° C. The plates then were blocked with 1% BSA in PBS (30 min at room temperature) and washed with PBS.
# (§3) Cell culturing and loading. HMVEC cells (passages (p)9-14) (from Lonza, Allendale, NJ) RLMVEC cells (p4-14) (from Vec Technology, Rensselaer, NY) and RAEC cells (p4-14) (from CellBiologics, Chicago, IL) were used for the compound testing. Cells were grown in T175 tissue culture flasks and dislodged by gentle 3 min treatment with Accutase (Life Technologies). After washing, the cells in suspension in RPMI-1640 (Life Technologies) were loaded with calcein-AM (5 μM) (Life Technologies) for 30 min at 37° C. and re-suspended into RPMI w/o phenol red medium containing 10% FBS.
# (§4) Adhesion assay. The cell suspension was aliquoted into the wells at a density of 1.0×10^5 cells/well (RLMVEC) and 5.0×10^4 (HMVEC, and RAEC). The test compounds are added at the same time with the cells. The plates are incubated for 1.5 h at 37° C. […] The wash was performed by 2 cycles of aspiration of the supernatant and addition of 100 μL of the pre-warmed fresh DPBS (Life Technologies). A fluorescence of the remaining cells is measured using multimode plate reader (Victor 2V, PerkinElmer) at an excitation/emission wavelengths of 485/535 nm. The compounds were tested starting with maximal concentration of 1 μM with half-log dilution schedule. IC50 values were calculated with Prism 5 (GraphPad, CA) by fixing the bottom of the curves to a value of blank for empty wells fluorescence.
# [2] = system: αv integrin; assay: Cell adhesion assay: RLMVEC adhesion to vitronectin coated plates; format: cell-based; settings: rat lung microvascular endothelial cells, 1.5 h at 37° C., read-out: IC50 to block adhesion of RLMVEC to vitronectin
# Description: as §1, §2, §3, §4
# [3] = system: αv integrin; assay: Cell adhesion assay: RAEC adhesion to vitronectin coated plates; format: cell-based; settings: rabbit aortic endothelial cells, 1.5 h at 37° C., read-out: IC50 to block adhesion of RAEC to vitronectin
# Description: as §1, §2, §3, §4
# [4] = system: chick chorioallantoic membrane (CAM); assay: Chick chorioallantoic membrane (CAM) anti-angiogenic assay; format: in vivo; settings: gelatin sponge graft with test compound and 50 ng VEGF; FIG. 1
# Description: CAM surfaces were grafted with gelatin sponges impregnated with the concentrations of test compounds and 50 ng VEGF dissolved in PBS. Untreated CAM received only VEGF and PBS. Error bars represent SEM, N=5, P values for the treated groups were calculated by comparing with the untreated group (*p<0.05, **p<0.01, ***p<0.001). Test Substance Preparation: Test samples and standards were dissolved in PBS and sterilized by passing through a syringe filter (0.22 μm). hVEGF(SIGMA) 50 ng/μl was prepared in sterile PBS. Grafting: Gelatin sponge (Abogel) was cut in approximately 2 mm^3 pieces and loaded with required test substance or PBS and VEGF. The graft was placed on the CAM. Eggs: Fertile hen eggs were procured from a hatchery and were cleaned and decontaminated using alcohol. 1 ml of albumin was removed using a syringe and incubated for 8 days. Grafts were placed on developing CAMs and further incubated to day 12. On day 12, CAMs were fixed with 4% formaldehyde in PBS, dissected and imaged. Imaging: Fixed CAMs were imaged under constant illumination and magnification under a stereomicroscope fitted with a digital camera (CANON). Image analysis: Images were analyzed on MS PowerPoint keeping the image size constant. A ring was drawn around the graft and the size was kept constant. Blood vessels crossing the ring were counted for each test group.
# [5] = Distribution in plasma, aqueous humor, vitreous humor and retina after topical ocular administration; format: in vivo, Dutch Belted rabbits; settings: 50 μL/eye, 1.0-2.5 mg/mL, 0.5 or 1.0 and 8 hours, FIGS. 2, 3, 4
# Description: The plasma concentrations and ocular distribution (aqueous humor, vitreous humor, and retina) of Compounds A1, A2, and A3 were determined following topical ocular administration in Dutch Belted rabbits. […] Aqueous humor, vitreous humor, and retina were collected from each eye at each time point post-dose. Also, weights were recorded. Plasma and ocular sample concentrations of the compounds were determined by LC-MS/MS.
# Animal Dosing: The exposure of compounds A1, A2, and A3 was evaluated in Dutch Belted rabbits. The study was not blinded. Each compound was dosed as n=3/time point for a total of nine rabbits. Rabbits were housed one per cage. Animals were not fasted, and food and water were supplied ad libitum.
# Animals were anesthetized following the 13IA5 IACUC protocol for the dosing. Each rabbit received a bolus dose of test formulation via topical ocular administration into both eyes at time zero on the day of dosing. Plasma and ocular samples were collected at pre-determined time points. Animals for the 30-minute and 1-hour time points were anesthetized for the entire duration of the study. The animals for the 8-hour time point were recovered after dosing and then euthanized for sampling purposes.
# At each time point, approximately 0.5 mL of blood was collected and placed into chilled Na-heparin tubes containing citric acid. Blood samples were centrifuged at a speed of 3,000 g for 5 minutes to obtain plasma as quickly as possible. Samples were stored frozen at −80° C. until analysis. Animals were euthanized per the 13IA5 IACUC protocol and both eyes were enucleated immediately. Following enucleation, each eye was rinsed with PBS. Ocular samples from both eyes of each animal were collected and weights were recorded. All the samples were frozen immediately on dry ice, and stored at −60 to −80° C. for analysis.
# Analysis of Plasma and Ocular Samples: An LC-MS/MS method was developed for the determination of Compounds A1, A2, and A3 in rabbit plasma and ocular samples.
# [6] = system: laser-induced choroidal neovascularization; assay: Laser-induced choroidal neovascularization (CNV) model; format: in vivo, Dutch Belted rabbits; settings: twice daily topical administration, 50 μL; fluorescein angiography day 35; FIG. 5
# Description: Healthy male animals weighing between 1.5 and 2.0 kg were used in these studies. Animals were weighed prior to dosing and at euthanasia, and more often if needed. Baseline fundus photography and fluorescein angiography was performed on each animal prior to CNV induction.
# Animals were anesthetized with an intramuscular injection of ketamine hydrochloride (20 mg/kg) and xylazine (2 mg/kg) for CNV induction, fundus photography, fluorescein angiography, and intravitreal (IVT) injections. Rabbits were maintained on isoflurane (approximatelyl to 3%) in oxygen (approximately 1 to 2 L/min) as necessary. One drop of topical proparacaine hydrochloride anesthetic (0.5%) was placed in each eye before procedures. Additional topical ocular anesthesia was utilized during the procedure if needed.
# CNV was induced by laser photocoagulation treatment. […]
# Clinical ophthalmic exams (slit-lamp biomicroscopy and indirect ophthalmoscopy), fundus photography, and fluorescein angiography were performed at baseline and then weekly for up to 6 weeks post-induction. Exams were scored using the McDonald-Shadduck Score System. […]
# At the conclusion of the study, animals were euthanized per the 13C232Q3 IACUC protocol and both eyes enucleated immediately. […] Ocular samples (aqueous humor, vitreous humor retina and choroid) from both eyes of each animal were collected and weights were recorded. […]
SMILES,IC50 [1],IC50 [2],IC50 [3],anti-angiogenic activity: number of blood vessels vs untreated control [4],distribution to the retina [5],reduction of laser-induced choroidal neovascularization vs vehicle control [6]
"O=C(O)C[C@@H](c1ccc(OC(F)F)nc1)N1CCN(CCCc2ccc3c(n2)NCCC3)C1=O [Compound A1, (S)-3-(6-(difluoromethoxy)pyridin-3-yl)-3-(2-oxo-3-(3-(5,6,7,8-tetrahydro-1,8-naphthyridin-2-yl)propyl)imidazolidin-1-yl)propanoic acid]",9.4 nM,31 nM,8.4 nM,significantly decreases the number of blood vessels,efficiently distributed to the retina,effectively reduced laser-induced choroidal neovascularization
"O=C(O)CC(CCCCCCc1ccc2c(n1)NCCC2)c1cnc(C(F)(F)F)nc1 (stereo not shown) [Compound A2, 9-(5,6,7,8-tetrahydro-1,8-naphthyridin-2-yl)-3-(2-(trifluoromethyl)pyrimidin-5-yl)nonanoic Acid]",160 nM,68 nM,16 nM,significantly decreases the number of blood vessels,efficiently distributed to the retina,effectively reduced laser-induced choroidal neovascularization
"O=C(O)CC(CCCCCCc1ccc2c(n1)NCCC2)c1ccc(OC(F)F)nc1 (stereo not shown) [Compound A3, 3-(6-(difluoromethoxy)pyridin-3-yl)-9-(5,6,7,8-tetrahydro-1,8-naphthyridin-2-yl)nonanoic Acid]",620 nM,230 nM,59 nM,,efficiently distributed to the retina,
"O=C(O)CC(CCCCCCc1ccc2c(n1)NCCC2)c1cnc2ccc(F)cc2c1 (stereo not shown) [Compound A4, 3-(6-fluoroquinolin-3-yl)-9-(5,6,7,8-tetrahydro-1,8-naphthyridin-2-yl)nonanoic Acid]",42 nM,32 nM,8.5 nM,,,
"O=C(O)CC(CCCCCCc1ccc2c(n1)NCCC2)c1cnc2cc(F)ccc2c1 (stereo not shown) [Compound A5, 3-(7-fluoroquinolin-3-yl)-9-(5,6,7,8-tetrahydro-1,8-naphthyridin-2-yl)nonanoic Acid]",250 nM,37 nM,20 nM,,,
"O=C(O)CC(CCCCCCc1ccc2c(n1)NCCC2)c1cnc2cc(F)c(F)cc2c1 (stereo not shown) [Compound A6, 3-(6,7-difluoroquinolin-3-yl)-9-(5,6,7,8-tetrahydro-1,8-naphthyridin-2-yl)nonanoic Acid]",44 nM,5.5 nM,44 nM,,,
"O=C(O)CC(CCCCCCc1ccc2c(n1)NCCC2)c1cnc2cc(C(F)(F)F)ccc2c1 (stereo not shown) [Compound A7, 9-(5,6,7,8-tetrahydro-1,8-naphthyridin-2-yl)-3-(7-(trifluoromethyl)quinolin-3-yl)nonanoic Acid]",130 nM,400 nM,210 nM,,,
